Reference: US12268697B2, “Oxysterols and methods of use thereof” (Sage Therapeutics, Inc., priority 2015, dated 2025)

Target: T1, GlunN1/GluN2A glutamate receptors (Homo sapiens, UniProt Q05586+Q12879)
T1 construct: expressed in transfected cells
Assay: Whole-cell patch clamp of mammalian cells (Ionworks Barracuda, IWB), NMDA potentiation
Assay type: cell-based
Settings: 3 μM test article; HEK293 cells expressing human GRIN1/GRIN2A; co-application with EC20 L-glutamate and 30 μM glycine
Procedure: NMDA potentiation was assessed using either whole cell patch clamp of mammalian cells which expressed NMDA receptors.
Whole-Cell Patch Clamp of Mammalian Cells (Ionworks Barracuda (IWB)
The whole-cell patch-clamp technique was used to investigate the effects of compounds on GlunN1/GluN2A glutamate receptors expressed in mammalian cells.
HEK293 cells were transformed with adenovirus 5 DNA and transfected with cDNA encoding the human GRIN1/GRIN2A genes. Stable transfectants were selected using G418 and Zeocin-resistance genes incorporated into the expression plasmid and selection pressure maintained with G418 and Zeocin in the medium. Cells were cultured in Dulbecco's Modified Eagle Medium/Nutrient Mixture (D-MEM/F-12) supplemented with 10% fetal bovine serum, 100 μg/ml penicillin G sodium, 100 μg/ml streptomycin sulphate, 100 μg/ml Zeocin, 5 μg/ml blasticidin and 500 μg/ml G418.
Test article effects were evaluated in 8-point concentration-response format (4 replicate wells/concentration). […]
• a) Intracellular solution (mM): 50 mM CsCl, 90 mM CsF, 2 mM MgCl2, 5 mM EGTA, 10 mM HEPES. […] Cell suspension will be pipetted into the wells (9 μL per well) of the PPC planar electrode. • b) Whole-cell recording configuration will be established via patch perforation with membrane currents recorded by on-board patch clamp amplifiers. • c) Two recordings (scans) will be performed. […]

T1 sequence (Q12879 23-1464, other chains not shown): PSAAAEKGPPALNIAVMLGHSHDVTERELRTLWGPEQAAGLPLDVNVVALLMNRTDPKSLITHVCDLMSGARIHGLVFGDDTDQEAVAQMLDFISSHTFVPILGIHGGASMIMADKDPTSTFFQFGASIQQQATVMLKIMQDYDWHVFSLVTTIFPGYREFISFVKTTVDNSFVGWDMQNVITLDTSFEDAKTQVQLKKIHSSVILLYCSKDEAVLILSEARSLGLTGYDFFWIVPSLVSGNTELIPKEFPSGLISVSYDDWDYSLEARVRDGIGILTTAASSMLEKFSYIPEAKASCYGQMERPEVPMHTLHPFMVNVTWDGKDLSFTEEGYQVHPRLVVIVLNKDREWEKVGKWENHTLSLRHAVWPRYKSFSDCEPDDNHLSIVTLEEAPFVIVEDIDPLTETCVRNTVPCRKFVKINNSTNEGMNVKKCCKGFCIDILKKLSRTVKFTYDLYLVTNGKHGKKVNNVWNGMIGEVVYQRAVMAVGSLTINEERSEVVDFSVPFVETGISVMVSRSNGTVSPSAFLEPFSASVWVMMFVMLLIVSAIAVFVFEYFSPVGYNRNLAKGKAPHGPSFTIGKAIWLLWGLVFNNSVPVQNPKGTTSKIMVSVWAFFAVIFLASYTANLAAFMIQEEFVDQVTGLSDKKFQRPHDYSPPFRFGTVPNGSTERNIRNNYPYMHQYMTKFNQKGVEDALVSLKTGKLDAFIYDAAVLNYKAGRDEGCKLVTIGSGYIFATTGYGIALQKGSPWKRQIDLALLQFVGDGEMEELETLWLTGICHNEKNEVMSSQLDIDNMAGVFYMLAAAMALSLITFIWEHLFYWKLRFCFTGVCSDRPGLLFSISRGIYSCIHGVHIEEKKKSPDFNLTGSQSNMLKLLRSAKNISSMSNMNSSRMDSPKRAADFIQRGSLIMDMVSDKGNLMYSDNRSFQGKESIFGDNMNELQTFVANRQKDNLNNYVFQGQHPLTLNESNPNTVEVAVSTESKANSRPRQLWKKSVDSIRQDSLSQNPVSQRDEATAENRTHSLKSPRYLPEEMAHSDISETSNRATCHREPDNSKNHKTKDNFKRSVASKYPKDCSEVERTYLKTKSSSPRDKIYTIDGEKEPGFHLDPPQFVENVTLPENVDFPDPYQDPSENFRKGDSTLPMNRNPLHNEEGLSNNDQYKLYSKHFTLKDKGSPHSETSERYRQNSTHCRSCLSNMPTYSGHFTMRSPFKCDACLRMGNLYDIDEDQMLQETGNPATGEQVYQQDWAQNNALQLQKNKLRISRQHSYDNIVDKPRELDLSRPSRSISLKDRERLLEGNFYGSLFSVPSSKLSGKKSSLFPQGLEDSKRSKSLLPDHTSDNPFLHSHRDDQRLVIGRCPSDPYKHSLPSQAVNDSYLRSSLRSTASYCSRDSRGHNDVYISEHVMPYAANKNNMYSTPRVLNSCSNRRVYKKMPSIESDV

## C[C@H](CCC[C@@H](C)O)[C@H]1CC[C@H]2[C@@H]3CC[C@H]4C[C@@](C)(O)CC[C@]4(C)[C@H]3CC[C@]12C [Compound 24]
  GluN2A PCA IWB Ephys % potentiation at 3 μM: B (“B” indicates potentiation of >100%)
